Laboratory results: PMC3166295 (PLoS ONE, 2011)
Peptide text beside a SMILES is read from it.

Experiments:
[1] = tested on: 8H5 binding to H5N1 virus Shenzhen/406H/2006; parameters: species or system H5N1 avian influenza virus
[2] = tested on: 8H5 binding to H5N1 virus Chicken/HongKong/YU22/2002; parameters: species or system H5N1 avian influenza virus
[3] = tested on: chicken serum antibody against H5N1 avian influenza virus; format: binding
[4] = target: 8H5 mAb; format: binding, murine; settings: read-out: Kd (dissociation constant for 8H5)
[5] = tested on: 8H5 mAb; format: binding, murine

SMILES | Blocking Dose SZ/406H: amount of peptide that blocks binding of 8H5 to the virus by 50% [1] [µg] | Blocking Dose Yu22: amount of peptide that blocks binding of 8H5 to the virus by 50% [2] [µg] | reactivity of the ELISA produced with V-1b fused to HBcAg with chicken serum samples [3] | Kd [4] [µM] | 8H5 titer (Tod1.5): phage dilution yielding an OD value of 1.5 [5]
CC[C@H](C)[C@H](NC(=O)[C@@H](NC(=O)[C@H](CC(C)C)NC(=O)[C@@H]1CCCN1C(=O)[C@@H](NC(=O)[C@@H](N)CC(=O)O)[C@@H](C)O)[C@@H](C)O)C(=O)N[C@@H](C)C(=O)NCC(=O)N[C@@H](CC(C)C)C(=O)N[C@@H](CCCCN)C(=O)N[C@@H](CC(C)C)C(=O)N[C@H](C(=O)O)C(C)C [II-1c] (H-DTPLTIAGLKLV-OH; N-terminus and C-terminus assumed) | 2.38 | 8.90 | – | – | –
CC(C)C[C@H](NC(=O)[C@H](C)NC(=O)[C@H](CCC(N)=O)NC(=O)[C@H](CCCCN)NC(=O)[C@@H](NC(=O)[C@H](CC(C)C)NC(=O)[C@H](CCC(=O)O)NC(=O)[C@@H](NC(=O)[C@@H](N)CC(=O)O)[C@@H](C)O)[C@@H](C)O)C(=O)N[C@@H](CCCNC(=N)N)C(=O)N[C@@H](CC(C)C)C(=O)N[C@H](C(=O)O)C(C)C [III-2a] (H-DTELTKQALRLV-OH; N-terminus and C-terminus assumed) | 6.10 | 15.19 | – | – | –
CC[C@H](C)[C@H](NC(=O)[C@@H](NC(=O)[C@H](CC(C)C)NC(=O)[C@H](CCC(=O)O)NC(=O)[C@@H](NC(=O)[C@@H](N)CCC(=O)O)[C@@H](C)O)[C@@H](C)O)C(=O)N[C@@H](C)C(=O)N[C@@H](C)C(=O)N[C@@H](CC(C)C)C(=O)N[C@@H](CCCCN)C(=O)N[C@@H](Cc1ccc(O)cc1)C(=O)N[C@H](C(=O)O)C(C)C [IV-1b] (H-ETELTIAALKYV-OH; N-terminus and C-terminus assumed) | >50 | >50 | – | – | –
CC[C@H](C)[C@H](NC(=O)[C@@H](NC(=O)[C@H](CC(C)C)NC(=O)[C@@H]1CCCN1C(=O)[C@@H](NC(=O)[C@@H](N)CCC(=O)O)[C@@H](C)O)[C@@H](C)O)C(=O)N[C@@H](C)C(=O)NCC(=O)N[C@@H](CC(C)C)C(=O)N[C@@H](CCCCN)C(=O)N[C@@H](CC(C)C)C(=O)N[C@@H](CCCCN)C(=O)O [V-1b] (H-ETPLTIAGLKLK-OH; N-terminus and C-terminus assumed) | 2.31 | 5.70 | only the H5N1 avian influenza reactive samples were also 8H5 reactive | – | –
CC(C)C[C@H](NC(=O)[C@H](C)NC(=O)[C@H](C)NC(=O)[C@@H](NC(=O)[C@@H](NC(=O)[C@H](CC(C)C)NC(=O)[C@@H]1CCCN1C(=O)[C@@H](NC(=O)[C@@H](N)CC(=O)O)[C@@H](C)O)[C@@H](C)O)[C@@H](C)O)C(=O)N[C@@H](CCCNC(=N)N)C(=O)N[C@@H](CC(C)C)C(=O)N[C@H](C(=O)O)C(C)C [p125] (H-DTPLTTAALRLV-OH; N-terminus and C-terminus assumed) | 11.16 | 18.34 | – | 0.824 | 2.96
